Literature values in patent US10849867B2, “Methods and compositions for treating conditions associated with an abnormal inflammatory response” (First Wave Bio, Inc., priority 2015, dated 2020).

Details: at 20° C.; cited from earlier work

NCCO.O=C(Nc1ccc([N+](=O)[O-])cc1Cl)c1cc(Cl)ccc1O [ethanol amine salt, 5-chloro-N-(2-chloro-4-nitrophenyl)-2-hydroxybenzamide with 2-aminoethanol (1.1)]
dissolves in distilled water: 180 to 280 mg/L
